Results on six compounds are retold here after DBAASP.

Converted amounts (≈) assume the structure as drawn.

Among the test systems are Streptococcus mutans; Escherichia coli AB94012; Staphylococcus sp.; Bacillus megaterium Bm11; Escherichia coli D21.
Holding throughout (experiment): ≥ marks a high value that may be exact or a test limit, other limits are often not marked, values filed in µg/mL are converted to µM
Experiment [1] deals with Batrachochytrium dendrobatidis JEL-197.
Experiment [2] has as its system Candida albicans ATCC 90028.
The subject of experiment [3] is Escherichia coli ATCC 25726.
Experiment [4] deals with Staphylococcus aureus ATCC 25923.
Experiment [5] deals with Enterobacter cloacae NHTCC 53001.
Experiment [6] has as its system Escherichia coli ATCC 25922.
Experiment [7] relates to Klebsiella pneumoniae KK3 9904.
In experiment [8] the test system is Pseudomonas aeruginosa ATCC 27853.
The test system of experiment [9] is Staphylococcus aureus NCTC 8325.
For experiment [10], the system named is Bacillus subtilis AB91021.
Experiment [11] has as its system Bacillus thuringiensis AB92037.
In experiment [12] the test system is Pseudomonas aeruginosa AB93066.
Experiment [13] deals with Staphylococcus aureus AB94004.
Experiment [14] has as its system Staphylococcus aureus P1369.
The subject of experiment [15] is Staphylococcus aureus P1374.
In experiment [16] the test system is Staphylococcus aureus P1381.
In experiment [17] the test system is Staphylococcus aureus P1383.
Experiment [18] deals with Staphylococcus aureus P1386.
For experiment [19], the system named is Staphylococcus aureus P969.
In experiment [20] the test system is Staphylococcus epidermidis P1111.
The test system of experiment [21] is Staphylococcus epidermidis P1368.
Experiment [22] deals with Staphylococcus epidermidis P1389.
For experiment [23], the system named is Escherichia coli HP101BA 7601c.
Experiment [24] deals with Klebsiella pneumoniae PTCC 1388.
The subject of experiment [25] is Micrococcus luteus PTCC 1625.
In experiment [26] the test system is Staphylococcus aureus PTCC 1431.
Experiment [27] deals with Bacillus subtilis ATCC 6633.
Experiment [28] concerns Proteus vulgaris OX19 ATCC 6380.
The test system of experiment [29] is Pseudomonas aeruginosa OT97.
In experiment [30] the test system is Shigella flexneri ATCC 203.
Experiment [31] deals with Staphylococcus aureus Cowan 1.
Experiment [32] relates to Staphylococcus aureus JC-1.

In the case of `CC[C@H](C)[C@H](NC(=O)CN)C(=O)N[C@@H](Cc1ccccc1)C(=O)N[C@@H](CO)C(=O)N[C@@H](C)C(=O)N[C@@H](CC(C)C)C(=O)N[C@@H](C)C(=O)N[C@@H](C)C(=O)NCC(=O)N[C@H](C(=O)N[C@@H](CCCCN)C(=O)N[C@@H](CC(C)C)C(=O)N[C@@H](CC(C)C)C(=O)NCC(=O)N[C@@H](CC(N)=O)C(=O)N[C@H](C(=O)N[C@@H](CC(C)C)C(=O)N[C@@H](Cc1ccccc1)C(=O)N[C@@H](CCCCN)C(=O)N[C@@H](CCSC)C(=O)N[C@@H](C)C(=O)NCC(=O)N[C@@H](CCCCN)C(=O)N[C@@H](C)C(=O)NCC(=O)N[C@@H](C)C(=O)N[C@@H](CCC(=O)O)C(=O)N[C@@H](Cc1cnc[nH]1)C(=O)N[C@@H](CC(C)C)C(=O)N[C@@H](C)C(=O)N[C@H]1CSSC[C@@H](C(=O)O)NC(=O)[C@H](CCC(N)=O)NC(=O)[C@H](CC(N)=O)NC(=O)[C@H]([C@@H](C)O)NC(=O)[C@H](C)NC(=O)[C@H](CCCCN)NC1=O)[C@@H](C)O)C(C)C` [GIFSALAAGVKLLGNTLFKMAGKAGAEHLACKATNQC], the MIC was 12.5 µM (≈ 46.3 µg/mL) in [1], at least 50 µM in [2], 25 µM (≈ 92.6 µg/mL) in experiment [3] and 12.5 µM (≈ 46.3 µg/mL) in [4].
With `CC[C@H](C)[C@H](NC(=O)[C@H](Cc1cnc[nH]1)NC(=O)[C@H](CCCCN)NC(=O)CNC(=O)[C@H](C)NC(=O)[C@@H](NC(=O)[C@H](CCCCN)NC(=O)[C@H](CC(C)C)NC(=O)[C@@H](NC(=O)CNC(=O)[C@H](CCCCN)NC(=O)[C@H](CC(C)C)NC(=O)[C@@H](NC(=O)[C@H](CO)NC(=O)[C@H](CCSC)NC(=O)[C@H](CC(C)C)NC(=O)CN)C(C)C)C(C)C)[C@@H](C)O)C(=O)N[C@@H](Cc1ccccc1)C(=O)N[C@@H](CCCCN)C(=O)N[C@@H](CC(N)=O)C(=O)N[C@H](C(=O)NCC(=O)NCC(=O)N[C@@H](CO)C(=O)N[C@@H](CC(C)C)C(=O)N[C@@H](CC(C)C)C(=O)N[C@@H](CC(=O)O)C(=O)N[C@@H](CCC(N)=O)C(=O)N[C@@H](C)C(=O)N[C@@H](CCCCN)C(=O)N[C@H]1CSSC[C@@H](C(=O)O)NC(=O)[C@H](CCC(N)=O)NC(=O)CNC(=O)[C@H]([C@@H](C)O)NC(=O)[C@H]([C@@H](C)CC)NC(=O)[C@H](CCCCN)NC1=O)C(C)C` [GLMSVLKGVLKTAGKHIFKNVGGSLLDQAKCKITGQC], the MIC in [2] is at least 100 µM; in experiment [5], 6 µM (≈ 23.1 µg/mL); in experiment [6], 3 µM (≈ 11.5 µg/mL); in [7], 6 µM (≈ 23.1 µg/mL); in experiment [8], 3 µM (≈ 11.5 µg/mL); in experiment [9], 25 µM (≈ 96.1 µg/mL).
Compound `CC[C@H](C)[C@H](NC(=O)[C@H](CCC(=O)O)NC(=O)[C@H](CCCCN)NC(=O)[C@@H](NC(=O)[C@H](CC(N)=O)NC(=O)[C@H](CCC(=O)O)NC(=O)[C@H](C)NC(=O)[C@H](CC(C)C)NC(=O)[C@@H](N)CCCCN)C(C)C)C(=O)N[C@@H](CC(C)C)C(=O)N[C@@H](CCCN=C(N)N)C(=O)O` [KLAENVKEILR] yielded a minimum inhibitory concentration (MIC) with Streptococcus mutans of at least 190 µM.
On to `CC[C@H](C)[C@H](NC(=O)[C@H](CC(C)C)NC(=O)[C@H](CO)NC(=O)[C@H](CCCCN)NC(=O)[C@@H](NC(=O)[C@H](CC(C)C)NC(=O)[C@H](CCCN=C(N)N)NC(=O)[C@H](Cc1ccccc1)NC(=O)[C@@H](N)CC(C)C)[C@@H](C)CC)C(=O)N[C@@H](CCCCN)C(=O)N[C@@H](CCCN=C(N)N)C(=O)N[C@@H](CC(C)C)C(=O)N[C@H](C(=O)N[C@@H](CO)C(=O)N[C@@H](C)C(=O)N[C@@H](Cc1ccccc1)C(=O)N[C@@H](CCCCN)C(N)=O)C(C)C` [LFRLIKSLIKRLVSAFK], for which the MIC in [10] is 12.3 µM (≈ 25 µg/mL); in experiment [11], 12.3 µM (≈ 25 µg/mL); against Escherichia coli AB94012 it was 6.15 µM (≈ 12.5 µg/mL); in experiment [12] it was at least 49.2 µM; in experiment [13] it was 2.46 µM (≈ 5 µg/mL); in experiment [14] it was 3.94 µM (≈ 8 µg/mL). The minimal inhibitory concentration (MIC) came to 3.94 µM (≈ 8 µg/mL) in [15]; 9.84 µM (≈ 20 µg/mL) in experiment [16]; 4.92 µM (≈ 10 µg/mL) in experiment [17]; 12.3 µM (≈ 25 µg/mL) in experiment [18]; 19.7 µM (≈ 40 µg/mL) in experiment [19]; 9.84 µM (≈ 20 µg/mL) in [20]. The values for the minimal inhibitory concentration (MIC) (in experiment [21]; in experiment [22]; with Staphylococcus sp.) were 3.94 µM (≈ 8 µg/mL), 3.94 µM (≈ 8 µg/mL) and 2.46 µM (≈ 5 µg/mL), respectively.
With `CC(C)C[C@H](NC(=O)CNC(=O)[C@H](C)NC(=O)[C@@H](N)CCCN=C(N)N)C(=O)N[C@@H](CCCCN)C(=O)N[C@@H](Cc1ccccc1)C(=O)N1CCC[C@H]1C(=O)N[C@H](C(=O)NCC(=O)N[C@@H](CCCN=C(N)N)C(=O)N[C@H](C(=O)N[C@@H](Cc1cnc[nH]1)C(=O)N[C@@H](CCCN=C(N)N)C(=O)N[C@@H](CC(C)C)C(=O)N[C@@H](CC(C)C)C(=O)N[C@@H](CCCN=C(N)N)C(=O)O)C(C)C)C(C)C` [RAGLKFPVGRVHRLLR], the MIC in [23] stood at 9.6 µM (≈ 18 µg/mL); in [24], 10.6 µM (≈ 19.9 µg/mL); in experiment [25], 6 µM (≈ 11.3 µg/mL); in experiment [26] it was 8.1 µM (≈ 15.2 µg/mL).
With `CC[C@H](C)[C@H](NC(=O)[C@H](CCCCN)NC(=O)[C@@H](NC(=O)[C@@H](NC(=O)[C@H](CCC(N)=O)NC(=O)CNC(=O)[C@H](Cc1cnc[nH]1)NC(=O)[C@H](CCC(N)=O)NC(=O)[C@H](CC(N)=O)NC(=O)[C@H](CCC(N)=O)NC(=O)[C@@H](N)C(C)C)C(C)C)C(C)C)C(=O)N[C@@H](Cc1ccccc1)C(=O)N[C@@H](Cc1cnc[nH]1)C(=O)N[C@@H](Cc1cnc[nH]1)C(=O)O` [VQNQHGQVVKIFHH], the minimum inhibitory concentration (MIC) was at least 4800 µM against Bacillus megaterium Bm11; at least 6000 µM in experiment [27]; at least 6000 µM in the experiment with Escherichia coli D21; at least 6000 µM in experiment [28]; at least 6000 µM in experiment [29]; at least 4800 µM in [30]. For the same compound, the minimal inhibitory concentration (MIC) was at least 6000 µM in experiment [31] and at least 3200 µM in [32].
